According to patent US20140255392A1 (BAYER INTELLECTUAL PROPERTY GMBH, priority 2011, published 2014):

Molecular target: T1, human kinase Mps-1 (Homo sapiens, UniProt P33981)
T1 construct: N-terminally GST-tagged human full length recombinant Mps-1 kinase; GST (N); purchased Invitrogen, Karslruhe, Germany PV4071
T1 sequence (P33981 1-857): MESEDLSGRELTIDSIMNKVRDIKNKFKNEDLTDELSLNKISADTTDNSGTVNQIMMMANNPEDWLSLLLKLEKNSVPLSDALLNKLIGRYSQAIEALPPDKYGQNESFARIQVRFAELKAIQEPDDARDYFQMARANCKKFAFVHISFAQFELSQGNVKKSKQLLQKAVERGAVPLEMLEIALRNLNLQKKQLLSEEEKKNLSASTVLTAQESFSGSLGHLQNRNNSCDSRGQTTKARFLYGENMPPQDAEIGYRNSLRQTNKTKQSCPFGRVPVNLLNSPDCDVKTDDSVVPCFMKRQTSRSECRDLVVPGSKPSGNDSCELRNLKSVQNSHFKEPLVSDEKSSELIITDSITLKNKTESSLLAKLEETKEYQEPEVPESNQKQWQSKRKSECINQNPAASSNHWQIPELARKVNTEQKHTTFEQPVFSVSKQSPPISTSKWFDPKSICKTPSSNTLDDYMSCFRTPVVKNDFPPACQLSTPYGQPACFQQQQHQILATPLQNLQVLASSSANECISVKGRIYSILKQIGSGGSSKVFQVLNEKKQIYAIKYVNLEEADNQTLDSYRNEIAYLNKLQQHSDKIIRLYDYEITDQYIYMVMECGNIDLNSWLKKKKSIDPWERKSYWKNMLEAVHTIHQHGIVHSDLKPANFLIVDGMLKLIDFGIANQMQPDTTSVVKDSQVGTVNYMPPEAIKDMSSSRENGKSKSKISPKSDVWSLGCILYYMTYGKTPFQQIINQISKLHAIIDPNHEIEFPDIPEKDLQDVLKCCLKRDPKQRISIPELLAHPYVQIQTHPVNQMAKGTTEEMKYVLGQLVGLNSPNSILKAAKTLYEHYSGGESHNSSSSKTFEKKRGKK
Assay: Mps-1 kinase assay (TR-FRET)
Assay type: biochemical
Conditions: N-terminally GST-tagged human full length recombinant Mps-1; 10 μM ATP; 1 μM peptide substrate; 60 min at 22° C.
Procedure, shortened: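 Compounds were tested against recombinant full-length Mps-1 bearing an N-terminal GST tag, about 1 nM final, with a biotinylated amide-capped peptide as substrate. Detection reagents were then bound for 1 h at 22° C and the product read by TR-FRET.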

Which IC50 does the source give for Cc1cc(-c2cnc3c(NCCC(F)(F)F)cc(/C=C\CO)cn23)ccc1C(=O)N[C@@H]1C[C@H]1F (relative stereo) [Example 118, N-[rel-(1R,2R)-2-fluorocyclopropyl]-4-{6-[(1Z)-3-hydroxyprop-1-en-1-yl]-8-[(3,3,3-trifluoropropyl)amino]imidazo[1,2-a]pyridin-3-yl}-2-methylbenzamide] here?
Its IC50 is 19.9 nM.

Which IC50 does the source give for Cc1cc(-c2cnc3c(NCC(F)F)cc(Oc4cc(F)ccc4F)cn23)ccc1C(=O)NC1CC1 [Example 165, N-cyclopropyl-4-{8-[(2,2-difluoroethyl)amino]-6-(2,5-difluorophenoxy)imidazo[1,2-a]pyridin-3-yl}-2-methylbenzamide] here?
The IC50 was 48.3 nM.

Which IC50 does the source give for CNC(=O)c1ccc(-c2cnc3c(NCC4CCOCC4)cc(Oc4ccc(OC)c(F)c4)cn23)cc1C [Example 121, 4-{6-(3-Fluoro-4-methoxyphenoxy)-8-[(tetrahydro-2H-pyran-4-ylmethyl)amino]imidazo[1,2-a]pyridin-3-yl}-N,2-dimethylbenzamide] here?
The IC50 was 1.5 nM.

Which IC50 does the source give for CNC(=O)c1ccc(-c2cnc3c(NCCC(F)(F)F)cc(-c4ccc(C(=O)N[C@H]5C[C@@H]5F)c(C)c4)cn23)cc1C (relative stereo) [Example 154, 4-{6-(4-{[rel-(1S,2S)-2-fluorocyclopropyl]carbamoyl}-3-methylphenyl)-8-[(3,3,3-trifluoropropyl)amino]imidazo[1,2-a]pyridin-3-yl}-N,2-dimethylbenzamide] here?
The IC50 was 12.7 nM.

Which IC50 does the source give for CCNC(=O)c1ccc(-c2cnc3c(NCCC(F)(F)F)cc(Oc4ccc(OC)c(F)c4)cn23)cc1C [Example 107, N-ethyl-4-{6-(3-fluoro-4-methoxyphenoxy)-8-[(3,3,3-trifluoropropyl)amino]imidazo[1,2-a]pyridin-3-yl}-2-methylbenzamide] here?
The IC50 was 1.8 nM.

Which IC50 does the source give for Cc1cc(-c2cnc3c(NCCC(F)(F)F)cc(Oc4cncc(F)c4)cn23)ccc1C(=O)NC1CC1 [Example 177, N-cyclopropyl-4-{6-[(5-fluoropyridin-3-yl)oxy]-8-[(3,3,3-trifluoropropyl)amino]imidazo[1,2-a]pyridin-3-yl}-2-methylbenzamide] here?
Its IC50 is 20.4 nM.

Which IC50 does the source give for CNC(=O)c1ccc(-c2cnc3c(NCCC(F)(F)F)cc(-c4ccccc4O)cn23)cc1C [Example 133, 4-{6-(2-Hydroxyphenyl)-8-[(3,3,3-trifluoropropyl)amino]imidazo[1,2-a]pyridin-3-yl}-N,2-dimethylbenzamide] here?
The IC50 was 12.6 nM.

Cc1cc(-c2cnc3c(NCCC(F)(F)F)cc(Oc4cccc(F)c4)cn23)ccc1C(=O)NC1(C2CC2)CC1 [Example 49, N-[1,1′-bi(cyclopropyl)-1-0]-4-{6-(3-fluorophenoxy)-8-[(3,3,3-trifluoropropyl)amino]imidazo[1,2-a]pyridin-3-yl}-2-methylbenzamide] was tested. Which IC50 did it give?
The IC50 was 97.6 nM.

C/C=C/c1cc(NCCC(F)(F)F)c2ncc(-c3ccc(C(=O)NC4(C#N)CC4)c(C)c3)n2c1 [Example 115, N-(1-cyanocyclopropyl)-2-methyl-4-{6-[(1E)-prop-1-en-1-yl]-8-[(3,3,3-trifluoropropyl)amino]imidazo[1,2-a]pyridin-3-yl}benzamide] was tested. Which IC50 did it give?
Its IC50 is 59.4 nM.

For Cc1cc(-c2cnc3c(NCCC(F)(F)F)cc(-c4ccncc4)cn23)ccc1C(=O)NC1(C#N)CC1 [Example 91, N-(1-cyanocyclopropyl)-2-methyl-4-{6-(pyridin-4-yl)-8-[(3,3,3-trifluoropropyl)amino]imidazo[1,2-a]pyridin-3-yl}benzamide], which IC50 is on record?
Its IC50 is 20.6 nM.

CCc1cc(NCCC(F)(F)F)c2ncc(-c3ccc(C(=O)NC4CC4)c(C)c3)n2c1 [Example 99] was tested. Which IC50 did it give?
The IC50 was 13.3 nM.

With Cc1cc(-c2cnc3c(NCCC(F)(F)F)cc(Oc4ccc(OC(F)(F)F)cc4)cn23)ccc1C(=O)NC1(C)CC1 [Example 66, 2-Methyl-N-(1-methylcyclopropyl)-4-{6-[4-(trifluoromethoxy)phenoxy]-8-[(3,3,3-trifluoropropyl)amino]imidazo[1,2-a]pyridin-3-yl}benzamide] as the compound, how does the IC50 read?
Its IC50 is 161 nM.

How did the IC50 turn out when Cc1cc(-c2cnc3c(NCCC(F)(F)F)cc(Oc4cccc(F)c4)cn23)ccc1C(=O)NC1CC1 [Example 6-1, N-cyclopropyl-4-{6-(3-fluorophenoxy)-8-[(3,3,3-trifluoropropyl)amino]imidazo[1,2-a]pyridin-3-yl}-2-methylbenzamide] was run?
Its IC50 is 0.3 nM.

CCNC(=O)c1ccc(-c2cnc3c(NCCC(F)(F)F)cc(Oc4ccccc4)cn23)cc1C [Example 60, N-ethyl-2-methyl-4-{6-phenoxy-8-[(3,3,3-trifluoropropyl)amino]imidazo[1,2-a]pyridin-3-yl}benzamide] was tested. Which IC50 did it give?
The IC50 was 2.3 nM.

Cc1cc(-c2cnc3c(NCCC(F)(F)F)cc(CCO)cn23)ccc1C(=O)NC1CC1 [Example 141, N-cyclopropyl-4-{6-(2-hydroxyethyl)-8-[(3,3,3-trifluoropropyl)amino]imidazo[1,2-a]pyridin-3-yl}-2-methylbenzamide] was tested. Which IC50 did it give?
Its IC50 is 26.2 nM.

CCNC(=O)c1ccc(-c2cc(NCCC(F)(F)F)c3ncc(-c4ccc(C(=O)NC)c(C)c4)n3c2)cc1C [Example 159, 4-{6-[4-(ethylcarbamoyl)-3-methylphenyl]-8-[(3,3,3-trifluoropropyl)amino]imidazo[1,2-a]pyridin-3-yl}-N,2-dimethylbenzamide] was tested. Which IC50 did it give?
The IC50 was 9.1 nM.

How did the IC50 turn out when Cc1cc(-c2cnc3c(NCCC(F)(F)F)cc(Oc4cccc(OC(F)(F)F)c4)cn23)ccc1C(=O)NC1CC1 [Example 74, N-cyclopropyl-2-methyl-4-{6-[3-(trifluoromethoxy)phenoxy]-8-[(3,3,3-trifluoropropyl)amino]imidazo[1,2-a]pyridin-3-yl}benzamide] was run?
Its IC50 is 6.8 nM.

For Cc1cc(-c2cnc3c(NCCC(F)(F)F)cc(-c4ccncc4)cn23)ccc1C(=O)NC1CC1 [Example 2-2, N-cyclopropyl-2-methyl-4-{6-(pyridin-4-yl)-8-[(3,3,3-trifluoropropyl)amino]imidazo [1,2-a]pyridin-3-yl} benzamide], which IC50 is on record?
Its IC50 is 0.3 nM.

For Cc1cc(-c2cnc3c(NCCC(F)(F)F)cc(Oc4cccc(F)c4)cn23)ccc1C(=O)NC1(CO)CC1 [Example 50, 4-{6-(3-Fluorophenoxy)-8-[(3,3,3-trifluoropropyl)amino]imidazo[1,2-a]pyridin-3-yl}-N-[1-(hydroxymethyl)cyclopropyl]-2-methylbenzamide], which IC50 is on record?
The IC50 was 7.3 nM.

For CCNC(=O)c1ccc(-c2cnc3c(NCCC(F)(F)F)cc(Oc4ccc(OC(F)(F)F)c(F)c4)cn23)cc1C [Example 87, N-ethyl-4-{6-[3-fluoro-4-(trifluoromethoxy)phenoxy]-8-[(3,3,3-trifluoropropyl)amino]imidazo[1,2-a]pyridin-3-yl}-2-methylbenzamide], which IC50 is on record?
Its IC50 is 70.3 nM.

CCNC(=O)c1ccc(-c2cnc3c(NCCC(F)(F)F)cc(Oc4ccc(O)c(F)c4)cn23)cc1C [Example 131, N-ethyl-4-{6-(3-fluoro-4-hydroxyphenoxy)-8-[(3,3,3-trifluoropropyl)amino]imidazo[1,2-a]pyridin-3-yl}-2-methylbenzamide] was tested. Which IC50 did it give?
The IC50 was 1.4 nM.

CCNC(=O)c1ccc(-c2cnc3c(NCCC(F)(F)F)cc(Oc4cccc(Cl)c4)cn23)cc1C [Example 35, 4-{6-(3-chlorophenoxy)-8-[(3,3,3-trifluoropropyl)amino]imidazo[1,2-a]pyridin-3-yl}-N-ethyl-2-methylbenzamide] was tested. Which IC50 did it give?
Its IC50 is 6.3 nM.

CCNC(=O)c1ccc(-c2cnc3c(NCCC(F)(F)F)cc(Oc4cccc(OC)c4)cn23)cc1C [Example 56, N-ethyl-4-{6-(3-methoxyphenoxy)-8-[(3,3,3-trifluoropropyl)amino]imidazo[1,2-a]pyridin-3-yl}-2-methylbenzamide] was tested. Which IC50 did it give?
The IC50 was 7.8 nM.

COc1cccc(Oc2cc(NCCC(F)(F)F)c3ncc(-c4ccc(C(=O)NC5(C)CC5)c(C)c4)n3c2)c1 [Example 54, 4-{6-(3-Methoxyphenoxy)-8-[(3,3,3-trifluoropropyl)amino]imidazo[1,2-a]pyridin-3-yl}-2-methyl-N-(1-methylcyclopropyl)benzamide] was tested. Which IC50 did it give?
The IC50 was 16 nM.

How did the IC50 turn out when CCNC(=O)c1ccc(-c2cnc3c(NCCC(F)(F)F)cc(/C=C\CO)cn23)cc1C [Example 120, N-ethyl-4-{6-[(12)-3-hydroxyprop-1-en-1-yl]-8-[(3,3,3-trifluoropropyl)amino]imidazo[1,2-a]pyridin-3-yl}-2-methylbenzamide] was run?
The IC50 was 42.2 nM.

Which IC50 does the source give for Cc1ccc(F)cc1Oc1cc(NCCC(F)(F)F)c2ncc(-c3ccc(C(=O)NC4(C)CC4)c(C)c3)n2c1 [Example 27, 4-{6-(5-Fluoro-2-methylphenoxy)-8-[(3,3,3-trifluoropropyl)amino]imidazo[1,2-a]pyridin-3-yl}-2-methyl-N-(1-methylcyclopropyl)benzamide] here?
The IC50 was 4.2 nM.
